Assay results reported in the supplement of paper PMC10307832.

compound: O=C1NC(=O)[C@@H](c2cn3c4c(cccc24)CCC3)[C@@H]1c1c[nH]c2ccccc12 [Tivantinib] + COc1cc2c(Oc3ccc(NC(=O)C4(C(=O)Nc5ccc(F)cc5)CC4)cc3F)ccnc2cc1OCCCN1CCOCC1 [Foretinib] (partner 0.25 µM); assay: relative viability (nuclei count vs DMSO), 5 days (fraction); higher = more cells survive; settings: first compound 0.01 µM
Procedure, shortened: (§1)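 Lung cancer cell lines were pin-tool dosed in 1536-well plates on the day after seeding, with either a lone drug or a fixed anchor-drug dose plus five library-drug doses (not always all listed) in √10 steps. Nuclei were counted on 4× images after 5 days. Relative viability is the ratio of treated-well to vehicle-well nuclei counts, with each value a median of duplicate plates.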

Cell Line	relative viability
NCI-H1623	0.87
NCI-H838	1
NCI-H1651	0.931
EBC-1	0.117
NCI-H1734	0.952
NCI-H2009	1.23
EPLC-272H	0.776
PC-14	0.93
LCLC-97TM1	0.993
NCI-H596	0.855
EMC-BAC-2	1
NCI-H2087	1.1
Calu-6	0.931
NCI-H1703	0.384
NCI-H647	1.25
LK-2	1.48
NCI-H2126	1.16
NCI-H2342	1.08
SK-MES-1	1.02
HARA	0.864

Cell Line	relative viability
COR-L23	1.01
COR-L 105	0.834
LC-2-ad	0.849
LU99A	0.692
ChaGo-K-1	0.846
NCI-H2170	0.975
NCI-H3122	0.947
IA-LM	1.01
HCC-78	0.548
A549	0.977
SW 900	0.831
LXF-289	0.96
NCI-H727	0.829
NCI-H1299	1.1
NCI-H650	1.03
NCI-H1563	0.98
LCLC-103H	0.783
ABC-1	0.936
NCI-H358	0.716
NCI-H661	1.01

same assay, conditions: first compound 0.03162 µM

Cell Line	relative viability
NCI-H1623	0.745
NCI-H838	1.07
NCI-H1651	0.813
EBC-1	0.107
NCI-H1734	0.937
NCI-H2009	1.22
EPLC-272H	0.593
PC-14	0.893
LCLC-97TM1	0.928
NCI-H596	0.835
NCI-H2228	0.841
EMC-BAC-2	0.962
NCI-H2087	1.16
Calu-6	0.924
NCI-H1703	0.335
NCI-H647	1.18
NCI-H2126	1.12
NCI-H2342	1.15
SK-MES-1	0.637
HARA	0.795

Cell Line	relative viability
COR-L23	0.953
COR-L 105	0.991
LC-2-ad	0.924
LU99A	0.84
ChaGo-K-1	0.904
NCI-H2170	0.929
NCI-H3122	0.982
IA-LM	1.15
HCC-78	0.547
A549	1.03
SW 900	0.934
LXF-289	0.927
NCI-H727	0.857
NCI-H1299	1.04
NCI-H650	0.987
NCI-H1563	0.892
LCLC-103H	0.68
ABC-1	0.995
NCI-H358	0.754
NCI-H661	1.04

same assay, conditions: first compound 0.1 µM

Cell Line	relative viability
NCI-H1623	0.818
NCI-H838	0.992
NCI-H1651	0.769
EBC-1	0.0799
NCI-H1734	0.743
NCI-H2009	1.21
EPLC-272H	0.787
PC-14	0.984
LCLC-97TM1	0.911
NCI-H596	1.1
NCI-H2228	0.678
EMC-BAC-2	0.487
NCI-H2087	0.914
Calu-6	0.806
NCI-H1703	0.319
NCI-H647	1.12
LK-2	1.16
NCI-H2126	1.04
NCI-H2342	0.948
SK-MES-1	0.962
HARA	0.935

Cell Line	relative viability
COR-L23	0.893
COR-L 105	0.982
LC-2-ad	0.85
LU99A	0.737
ChaGo-K-1	0.838
NCI-H2170	1.02
NCI-H3122	0.909
IA-LM	0.983
HCC-78	0.539
A549	0.913
SW 900	0.818
LXF-289	0.95
NCI-H727	0.629
NCI-H1299	1.04
NCI-H650	0.989
NCI-H1563	0.819
LCLC-103H	0.735
ABC-1	1.09
NCI-H358	0.508
NCI-H661	0.968

same assay, conditions: first compound 0.3162 µM

Cell Line	relative viability
NCI-H838	1.07
NCI-H1651	0.691
EBC-1	0.0958
NCI-H1734	0.598
NCI-H2009	1.27
EPLC-272H	0.0941
PC-14	1.05
LCLC-97TM1	0.888
NCI-H596	0.895
NCI-H2228	0.714
EMC-BAC-2	0.72
NCI-H2087	1.13
Calu-6	0.725
NCI-H1703	0.307
NCI-H647	1.21
LK-2	0.929
NCI-H2126	0.829
NCI-H2342	0.682
SK-MES-1	0.924
HARA	0.643

Cell Line	relative viability
COR-L23	1.04
COR-L 105	0.735
LC-2-ad	0.597
LU99A	0.6
ChaGo-K-1	0.559
NCI-H3122	0.951
IA-LM	1.12
HCC-78	0.441
A549	0.889
SW 900	0.888
LXF-289	0.983
NCI-H727	0.732
NCI-H1299	1.07
NCI-H650	0.822
NCI-H1563	0.783
LCLC-103H	0.663
ABC-1	1.15
NCI-H358	0.273
NCI-H661	0.686

compound: O=C1NC(=O)[C@@H](c2cn3c4c(cccc24)CCC3)[C@@H]1c1c[nH]c2ccccc12 [Tivantinib] + Nc1nc2[nH]cc(CCc3ccc(C(=O)N[C@@H](CCC(=O)O)C(=O)O)cc3)c2c(=O)[nH]1 [Pemetrexed] (partner 0.2 µM); assay: as above; settings: first compound 0.01 µM
Procedure, shortened: as §1

Cell Line	relative viability
NCI-H522	1.01
NCI-H838	0.253
NCI-H1651	0.553
NCI-H1734	0.43
NCI-H2009	1.01
EPLC-272H	0.408
PC-14	0.142
LCLC-97TM1	0.148
NCI-H596	0.503
NCI-H2228	0.363
EMC-BAC-2	0.457
NCI-H2087	0.645
HCC-44	0.62
NCI-H647	0.17
LK-2	0.261
NCI-H2126	0.677
NCI-H2342	0.761
SK-MES-1	0.95

Cell Line	relative viability
HARA	0.279
COR-L23	0.194
COR-L 105	1.02
LC-2-ad	0.3
LU99A	0.173
ChaGo-K-1	0.264
NCI-H2170	0.288
NCI-H3122	0.179
HCC-78	0.893
SW 900	0.551
LXF-289	0.925
NCI-H650	1.19
NCI-H1563	0.558
NCI-H1792	0.965
LCLC-103H	0.472
NCI-H358	0.178
NCI-H661	0.922

same assay, conditions: first compound 0.03162 µM

Cell Line	relative viability
NCI-H522	1.02
NCI-H838	0.258
NCI-H1651	0.548
NCI-H1734	0.352
NCI-H2009	1.12
EPLC-272H	0.356
PC-14	0.123
LCLC-97TM1	0.165
NCI-H596	0.406
NCI-H2228	0.319
EMC-BAC-2	0.448
NCI-H2087	0.78
HCC-44	0.654
NCI-H647	0.192
LK-2	0.286
NCI-H2126	0.633
NCI-H2342	0.849
SK-MES-1	0.913

Cell Line	relative viability
HARA	0.252
COR-L23	0.195
COR-L 105	1.05
LC-2-ad	0.252
LU99A	0.201
ChaGo-K-1	0.254
NCI-H2170	0.285
NCI-H3122	0.199
HCC-78	0.878
SW 900	0.497
LXF-289	0.501
NCI-H1648	0.67
NCI-H650	0.842
NCI-H1563	0.703
LCLC-103H	0.368
NCI-H358	0.177
NCI-H661	0.961

same assay, conditions: first compound 0.1 µM

Cell Line	relative viability
NCI-H522	0.997
NCI-H838	0.239
NCI-H1651	0.572
NCI-H1734	0.417
NCI-H2009	1.04
EPLC-272H	0.344
PC-14	0.147
LCLC-97TM1	0.157
NCI-H596	0.453
NCI-H2228	0.329
EMC-BAC-2	0.475
NCI-H2087	0.58
HCC-44	0.616
NCI-H647	0.18
LK-2	0.276
NCI-H2126	0.706
NCI-H2342	0.771
SK-MES-1	0.816

Cell Line	relative viability
HARA	0.263
COR-L23	0.204
COR-L 105	1.08
LC-2-ad	0.276
LU99A	0.16
ChaGo-K-1	0.264
NCI-H2170	0.244
NCI-H3122	0.196
HCC-78	0.933
SW 900	0.475
LXF-289	0.896
NCI-H1648	0.722
NCI-H650	0.839
NCI-H1563	0.715
NCI-H1792	0.81
LCLC-103H	0.406
NCI-H358	0.191
NCI-H661	0.975

same assay, conditions: first compound 0.3162 µM

Cell Line	relative viability
NCI-H522	0.476
NCI-H838	0.227
NCI-H1651	0.58
NCI-H1734	0.432
NCI-H2009	1.08
EPLC-272H	0.182
PC-14	0.103
LCLC-97TM1	0.191
NCI-H596	0.426
NCI-H2228	0.352
EMC-BAC-2	0.479
NCI-H2087	0.603
HCC-44	0.664
NCI-H647	0.184
LK-2	0.244
NCI-H2126	0.547
NCI-H2342	0.681
SK-MES-1	0.783

Cell Line	relative viability
HARA	0.24
COR-L23	0.195
COR-L 105	0.696
LC-2-ad	0.259
LU99A	0.178
ChaGo-K-1	0.251
NCI-H3122	0.162
HCC-78	0.879
SW 900	0.515
LXF-289	0.925
NCI-H1648	0.486
NCI-H650	0.909
NCI-H1563	0.624
NCI-H1792	0.725
LCLC-103H	0.432
NCI-H358	0.167
NCI-H661	0.844
